According to patent publication US20250100993A1, “2-SUBSTITUTED THIAZOLE HSD17B13 INHIBITORS AND USES THEREOF” (Inipharm, Inc., priority 2022, published 2025):

Biological target: HSD17B13 (Homo sapiens (Human), UniProt Q7Z5P4)
Test: LC/MS estrone detection assay for HSD17B13 activity (estradiol to estrone)
Format: biochemical
Conditions: estradiol substrate, LC-MS/MS estrone detection
Experimental: The liquid chromatography/mass spectrometry (LC/MS) estrone detection assay monitors the conversion of estradiol to estrone by HSD17B13. This assay was undertaken in a 96 wp format (Eppendorf deep well Plate 96/500) in an 80 μl reaction volume containing: 4 μM of Estradiol (E2; Cayman; Ser. No. 10/006,315), 6 mM NAD+(Sigma; #N0623) and 30 nM HSD17B13 enzyme (in-house; E. coli expressed His-tagged, purified, soluble protein) in a reaction containing 1M potassium phosphate buffer pH 7.4, with 0.5% vehicle (DMSO). Reactions were incubated for 2 hours at 26.5° C., and estradiol (E2) conversion to estrone (E1) was quantitated by LC-MS/MS based analyte detection for both E2 and E1 using LCMS grade reagents.
Reactions were terminated by the addition of two volumes of acetonitrile (MeCN; LCMS grade; CAS #75/05/8) containing deuterated (D4)-E1 used as internal standard (Clear Synth; #CS-T-54273; 500 ng/mL final concentration). Samples were applied to pre-prepared Bond Elut-C18 extraction cartridges (3 mL; Agilent; Ser. No. 12/102,028), washed and eluted in MeCN. Eluates were dried under nitrogen and re-suspended in 60% methanol (LCMS grade methanol; CAS #67/56/1) before submission for analysis. Aqueous linearity for E2 and E1 were included for quantification.
Analysis of samples was undertaken on a XBridge BEH C18 column (Waters; #186003033) using 0.1% Diethyl Amine in MeCN (mobile phase A; DEA CAS #109-89-7) and 0.1% Diethyl Amine in milli-Q water (mobile phase B) in a 3 min gradient allowing 25% B. Analytes were detected in negative mode using MRM analysis, with E2 having a RT of 1.85 min and E1 having a RT of 2 min. Activity of the enzyme, in the absence of NAD+, was used to evaluate specificity of conversion. Enzyme activity in the presence of test samples was expressed as a percentage of the uninhibited enzyme activity, and plotted versus inhibitor concentration. Non-linear regression was performed using a four-parameter logistic model and GraphPad Prism software (GraphPad Software, La Jolla, CA). All assessments were undertaken in duplicate evaluations and pooled during extraction process and subsequently injected as duplicates for LC-MS/MS analysis.

Chain of HSD17B13 (Q7Z5P4 20-300): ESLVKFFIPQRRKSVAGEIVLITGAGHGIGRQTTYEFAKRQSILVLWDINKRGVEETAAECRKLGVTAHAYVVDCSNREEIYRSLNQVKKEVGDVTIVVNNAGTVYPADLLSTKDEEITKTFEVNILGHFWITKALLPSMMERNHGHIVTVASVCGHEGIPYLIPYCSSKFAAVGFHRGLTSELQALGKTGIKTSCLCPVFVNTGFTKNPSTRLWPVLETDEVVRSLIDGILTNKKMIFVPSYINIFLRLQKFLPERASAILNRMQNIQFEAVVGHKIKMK

`O=C(Nc1n[nH]cc1C(=O)NCc1ccccc1C(F)(F)F)c1cc(Cl)c(O)c(Cl)n1` [Example 1, 4,6-dichloro-5-hydroxy-N-(4-((2-(trifluoromethyl)benzyl)carbamoyl)-1H-pyrazol-3-yl)picolinamide] was tested. Which IC50 did it give?
The IC50 was ≤ 100 nM.

Which IC50 does the source give for `Cn1cc(C(=O)NCc2ccccc2C(F)(F)F)c(NC(=O)c2cc(Cl)c(O)c(Cl)n2)n1` [Example 2, 4,6-dichloro-5-hydroxy-N-(1-methyl-4-((2-(trifluoromethyl)benzyl)carbamoyl)-1H-pyrazol-3-yl)picolinamide] here?
The IC50 was 100 to 500 nM.

How did the IC50 turn out when `O=C(Nc1n[nH]cc1C(=O)NCc1ccccc1C(F)(F)F)c1cc(Cl)c(O)c(Cl)c1` [Example 3, 3-(3,5-dichloro-4-hydroxybenzamido)-N-(2-(trifluoromethyl)benzyl)-1H-pyrazole-4-carboxamide] was run?
The IC50 was ≤ 100 nM.

For `Cn1cc(NC(=O)c2cc(Cl)c(O)c(Cl)n2)c(C(=O)NCc2ccccc2OC(F)(F)F)n1` [Example 4, 4,6-dichloro-5-hydroxy-N-(1-methyl-3-((2-(trifluoromethoxy)benzyl)carbamoyl)-1H-pyrazol-4-yl)picolinamide], which IC50 is on record?
Its IC50 is 100 to 500 nM.

`Cn1ncc(NC(=O)c2cc(Cl)c(O)c(Cl)n2)c1C(=O)NCc1ccccc1OC(F)(F)F` [Example 5, 4,6-dichloro-5-hydroxy-N-(1-methyl-5-((2-(trifluoromethoxy)benzyl)carbamoyl)-1H-pyrazol-4-yl)picolinamide] was tested. Which IC50 did it give?
The IC50 was 100 to 500 nM.

For `Cn1cc(C(=O)NCc2ccccc2C(F)(F)F)c(NC(=O)c2cc(Cl)c(O)c(Cl)c2)n1` [Example 6, 3-(3,5-dichloro-4-hydroxybenzamido)-1-methyl-N-(2-(trifluoromethyl)benzyl)-1H-pyrazole-4-carboxamide], which IC50 is on record?
Its IC50 is 100 to 500 nM.

`Cn1ncc(C(=O)NCc2ccccc2C(F)(F)F)c1NC(=O)c1cc(Cl)c(O)c(Cl)c1` [Example 7, 5-(3,5-dichloro-4-hydroxybenzamido)-1-methyl-N-(2-(trifluoromethyl)benzyl)-1H-pyrazole-4-carboxamide] was tested. Which IC50 did it give?
Its IC50 is 1000 to 10000 nM.

How did the IC50 turn out when `O=C(Nc1nn(-c2ccccc2)cc1C(=O)NCc1ccccc1C(F)(F)F)c1cc(Cl)c(O)c(Cl)n1` [Example 8, 4,6-dichloro-5-hydroxy-N-(1-phenyl-4-((2-(trifluoromethyl)benzyl)carbamoyl)-1H-pyrazol-3-yl)picolinamide] was run?
Its IC50 is 100 to 500 nM.

With `O=C(Nc1nn(-c2ccccc2)cc1C(=O)NCc1ccccc1C(F)(F)F)c1cc(Cl)c(O)c(Cl)c1` [Example 9, 3-(3,5-dichloro-4-hydroxybenzamido)-1-phenyl-N-(2-(trifluoromethyl)benzyl)-1H-pyrazole-4-carboxamide] as the compound, how does the IC50 read?
Its IC50 is ≤ 100 nM.

For `Cn1ncc(C(=O)NCc2ccccc2C(F)(F)F)c1NC(=O)c1cc(Cl)c(O)c(Cl)n1` [Example 10, 4,6-dichloro-5-hydroxy-N-(1-methyl-4-((2-(trifluoromethyl)benzyl)carbamoyl)-1H-pyrazol-5-yl)picolinamide], which IC50 is on record?
The IC50 was 1000 to 10000 nM.

`Cc1ccc(NC(=O)c2cc(Cl)c(O)c(Cl)c2)c2c(=O)n(Cc3ccccc3C(F)(F)F)nnc12` [Example 11, 3,5-dichloro-4-hydroxy-N-(8-methyl-4-oxo-3-(2-(trifluoromethyl)benzyl)-3,4-dihydrobenzo[d][1,2,3]triazin-5-yl)benzamide] was tested. Which IC50 did it give?
The IC50 was ≤ 100 nM.

How did the IC50 turn out when `Cc1ccc(NC(=O)c2cc(Cl)c(O)c(Cl)n2)c2c(=O)n(Cc3ccccc3C(F)(F)F)nnc12` [Example 12, 4,6-dichloro-5-hydroxy-N-(8-methyl-4-oxo-3-(2-(trifluoromethyl)benzyl)-3,4-dihydrobenzo[d][1,2,3]triazin-5-yl)picolinamide] was run?
Its IC50 is 100 to 500 nM.

`O=C(Nc1ccc(F)c2nnn(Cc3ccccc3C(F)(F)F)c(=O)c12)c1cc(Cl)c(O)c(Cl)n1` [Example 13, 4,6-dichloro-N-(8-fluoro-4-oxo-3-(2-(trifluoromethyl)benzyl)-3,4-dihydrobenzo[d][1,2,3]triazin-5-yl)-5-hydroxypicolinamide] was tested. Which IC50 did it give?
The IC50 was 100 to 500 nM.

`O=C(Nc1ccc(F)c2nnn(Cc3ccccc3C(F)(F)F)c(=O)c12)c1cc(Cl)c(O)c(Cl)c1` [Example 14, 3,5-dichloro-N-(8-fluoro-4-oxo-3-(2-(trifluoromethyl)benzyl)-3,4-dihydrobenzo[d][1,2,3]triazin-5-yl)-4-hydroxybenzamide] was tested. Which IC50 did it give?
Its IC50 is ≤ 100 nM.

How did the IC50 turn out when `Cc1nc2c(F)ccc(NC(=O)c3cc(Cl)c(O)c(Cl)n3)c2c(=O)n1[C@H]1CC[C@@H]1c1ccccc1` [Example 15, 4,6-dichloro-N-(8-fluoro-2-methyl-4-oxo-3-((1S,2R)-2-phenylcyclobutyl)-3,4-dihydroquinazolin-5-yl)-5-hydroxypicolinamide] was run?
Its IC50 is 100 to 500 nM.

Which IC50 does the source give for `Cc1nc2c(F)ccc(NC(=O)c3cc(Cl)c(O)c(Cl)c3)c2c(=O)n1[C@H]1CC[C@@H]1c1ccccc1` [Example 16, 3,5-dichloro-N-(8-fluoro-2-methyl-4-oxo-3-((1S,2R)-2-phenylcyclobutyl)-3,4-dihydroquinazolin-5-yl)-4-hydroxybenzamide] here?
Its IC50 is ≤ 100 nM.

Which IC50 does the source give for `Cc1ccc(NC(=O)c2cc(Cl)c(O)c(Cl)c2)c2c(=O)n(C3CCC3c3ccccc3C(F)(F)F)c(C)nc12` (stereo not shown) [Example 17, 3,5-dichloro-N-(2,8-dimethyl-4-oxo-3-(2-(2-(trifluoromethyl)phenyl)cyclobutyl)-3,4-dihydroquinazolin-5-yl)-4-hydroxybenzamide] here?
Its IC50 is 100 to 500 nM.

For `CCn1c(=O)n(Cc2ccccc2C(F)(F)F)c(=O)c2c(NC(=O)c3cc(Cl)c(O)c(Cl)n3)cccc21` [Example 18, 4,6-dichloro-N-(1-ethyl-2,4-dioxo-3-(2-(trifluoromethyl)benzyl)-1,2,3,4-tetrahydroquinazolin-5-yl)-5-hydroxypicolinamide], which IC50 is on record?
Its IC50 is 100 to 500 nM.

For `Cn1c(=O)n(Cc2ccccc2C(F)(F)F)c(=O)c2c(NC(=O)c3cc(Cl)c(O)c(Cl)n3)ccc(F)c21` [Example 19, 4,6-dichloro-N-(8-fluoro-1-methyl-2,4-dioxo-3-(2-(trifluoromethyl)benzyl)-1,2,3,4-tetrahydroquinazolin-5-yl)-5-hydroxypicolinamide], which IC50 is on record?
Its IC50 is 100 to 500 nM.

With `Cn1c(=O)n(Cc2ccccc2C(F)(F)F)c(=O)c2c(NC(=O)c3cc(Cl)c(O)c(Cl)n3)cccc21` [Example 20, 4,6-dichloro-5-hydroxy-N-(1-methyl-2,4-dioxo-3-(2-(trifluoromethyl)benzyl)-1,2,3,4-tetrahydroquinazolin-5-yl)picolinamide] as the compound, how does the IC50 read?
Its IC50 is 100 to 500 nM.

`Cc1nc(C(=O)NCc2ccccc2OC(F)(F)F)c(NC(=O)c2cc(Cl)c(O)c(Cl)c2)s1` [Example 21, 5-(3,5-dichloro-4-hydroxybenzamido)-2-methyl-N-(2-(trifluoromethoxy)benzyl)thiazole-4-carboxamide] was tested. Which IC50 did it give?
Its IC50 is 100 to 500 nM.

For `Cc1nc(C(=O)NCc2ccccc2OC(F)(F)F)c(NC(=O)c2cc(Cl)c(O)c(Cl)n2)s1` [Example 22, 5-(4,6-dichloro-5-hydroxypicolinamido)-2-methyl-N-(2-(trifluoromethoxy)benzyl)thiazole-4-carboxamide], which IC50 is on record?
Its IC50 is 100 to 500 nM.

With `O=C(Nc1sc(-c2ccccc2)nc1C(=O)NCc1ccccc1C(F)(F)F)c1cc(Cl)c(O)c(Cl)n1` [Example 23, 5-(4,6-dichloro-5-hydroxypicolinamido)-2-phenyl-N-(2 (trifluoromethyl)benzyl)thiazole-4-carboxamide] as the compound, how does the IC50 read?
Its IC50 is ≤ 100 nM.

For `O=C(Nc1scnc1C(=O)NC1(c2ccccc2C(F)(F)F)CC1)c1cc(Cl)c(O)c(Cl)n1` [Example 24, 5-(4,6-dichloro-5-hydroxypicolinamido)-N-(1-(2-(trifluoromethyl)phenyl)cyclopropyl)thiazole-4-carboxamide], which IC50 is on record?
The IC50 was 100 to 500 nM.

Which IC50 does the source give for `CN(Cc1ccccc1C(F)(F)F)C(=O)c1ncsc1NC(=O)c1cc(Cl)c(O)c(Cl)n1` [Example 25, 5-(4,6-dichloro-5-hydroxypicolinamido)-N-methyl-N-(2-(trifluoromethyl)benzyl)thiazole-4-carboxamide] here?
Its IC50 is 100 to 500 nM.

For `Cc1nc(C(=O)NCc2ccccc2C(F)(F)F)c(NC(=O)c2cc(Cl)c(O)c(Cl)n2)s1` [Example 26, 5-(4,6-dichloro-5-hydroxypicolinamido)-2-methyl-N-(2-(trifluoromethyl)benzyl)thiazole-4-carboxamide], which IC50 is on record?
Its IC50 is 100 to 500 nM.

How did the IC50 turn out when `Cc1nc(C(=O)NCc2ccccc2C(F)(F)F)c(NC(=O)c2cc(Cl)c(O)c(Cl)c2)s1` [Example 27, 5-(3,5-dichloro-4-hydroxybenzamido)-2-methyl-N-(2-(trifluoromethyl)benzyl)thiazole-4-carboxamide] was run?
Its IC50 is 100 to 500 nM.

Which IC50 does the source give for `O=C(Nc1ncc(C(=O)NCc2ccccc2C(F)(F)F)s1)c1cc(Cl)c(O)c(Cl)n1` [Example 28, 2-(4,6-dichloro-5-hydroxypicolinamido)-N-(2-(trifluoromethyl)benzyl)thiazole-5-carboxamide] here?
Its IC50 is 1000 to 10000 nM.
